From patent publication US20240109897A1, “MODULATORS OF FPR1 AND METHODS OF USING THE SAME” (BEIJING TIANTAN HOSPITAL, priority 2021, published 2024) come the findings set out here.

In test [1] the test system is ICH mice. Description: Brain infiltrating neutrophils by flow cytometry in ICH mouse model. It counts as in vivo. Conditions: vs vehicle. An excerpt:
The intracerebral hemorrhage (ICH) model in mice was used to illustrate the protective benefits of the compounds of this disclosure, and FIG. 1 depicts the procedure in preparing this model. ICH was induced in C57 B/L6 male mice by the injection of an autologous blood or collagenase as previously described (Lauer et al., Circulation 124: 1654-1662 (2011); Rynkowski et al., Nat. Protoc. 3:122-128 (2008)). Mice were anesthetized using isoflurane inhalation and fixed on a stereotactic frame. A burr hole was drilled on the right side of the skull at 2.3 mm lateral to the midline and 0.5 mm anterior to the bregma. For the autologous blood model, 30 μl of non-heparinized blood was withdrawn from the angular vein. The first 5 μl blood was injected at a depth of 3 mm beneath the hole, and the rest 25 μl blood were injected at 3.7 mm beneath the hole with a rate of 1 μl/min. In the collagenase model, 0.038 U of the bacterial collagenase (in 0.5 μl saline) was infused to the striatum (0.5 mm anterior, 2.3 mm right lateral, and 3.5 mm deep relative to bregma) at a speed of 0.5 μl/min. […]
Single cell suspension of brain tissues was prepared and stained with fluorochrome-conjugated antibodies. […] Flow cytometric measurements were performed on a FACS Aria III (BD Bioscience) and analyzed using Flowjo 7.6 software (Informer Technologies, Ashland, OR, USA).
Background: In flow cytometry, cells or beads pass a laser one at a time.

In test [2] the test system is ICH mice. Put plainly: Neurological function assessment (mNSS, corner-turning test, rotarod test) in ICH mouse model. The conditions noted are these: vs vehicle. It counts as in vivo. The source says:
The intracerebral hemorrhage (ICH) model in mice was used to illustrate the protective benefits of the compounds of this disclosure, and FIG. 1 depicts the procedure in preparing this model. ICH was induced in C57 B/L6 male mice by the injection of an autologous blood or collagenase as previously described (Lauer et al., Circulation 124: 1654-1662 (2011); Rynkowski et al., Nat. Protoc. 3:122-128 (2008)). Mice were anesthetized using isoflurane inhalation and fixed on a stereotactic frame. A burr hole was drilled on the right side of the skull at 2.3 mm lateral to the midline and 0.5 mm anterior to the bregma. For the autologous blood model, 30 μl of non-heparinized blood was withdrawn from the angular vein. The first 5 μl blood was injected at a depth of 3 mm beneath the hole, and the rest 25 μl blood were injected at 3.7 mm beneath the hole with a rate of 1 μl/min. In the collagenase model, 0.038 U of the bacterial collagenase (in 0.5 μl saline) was infused to the striatum (0.5 mm anterior, 2.3 mm right lateral, and 3.5 mm deep relative to bregma) at a speed of 0.5 μl/min. Mice on the sham control were injected with an equal volume of saline. Throughout the procedure, the body temperature was maintained at 37° C. with a homeothermic blanket. […]
The neurological function assessment was performed by investigators who were blinded to the two treatment groups. The modified Neurological Severity Score (mNSS), corner-turning test, and rotarod test were conducted to evaluate the neuro-deficits of the ICH mice at defined time points as described (Li et al., Proc. Nat. Acad. Sci. USA 114:E396-E405 (2017)). mice were evaluated for motor function (muscle and abnormal movement), sensory (visual, tactile, and proprioceptive), and reflexes (pinna, corneal, startle reflexes). […] The corner-turning test was used to evaluate the sensorimotor damage to quantify the turning preference (right or left) upon approaching a 30° corner. […] The percentage of ipsilateral turns was then calculated. […] The duration of each mouse on the rod was recorded. […]
In general terms: In the rotarod test animals must keep their balance on a rotating rod.

Where [3] appears, read: day 1 and day 3 after ICH, 5 mg/kg i.p.

Turning to `Cc1ccc(O)c(-c2[nH]nc3c2C(c2ccc(C(F)(F)F)cc2)N(C2CCOCC2)C3=O)c1` (racemic) [Compound 1, Rac-3-(2-hydroxy-5-methylphenyl)-5-(tetrahydro-2H-pyran-4-yl)-4-(4-(trifluoromethyl)phenyl)-4,5-dihydropyrrolo[3,4-c]pyrazol-6(2H)-one], the “reduction of total number of brain-infiltrated neutrophils” value in the test on ICH mice [1] (Day 3, 5 mg/kg i.p.) turned out to be 54%. Further, in the test on ICH mice [1] (Day-1, 5 mg/kg i.p.), the “reduction of total number of brain-infiltrated neutrophils” value is recorded as 47%. Moreover, in the test on ICH mice [2] (5 mg/kg/daily i.p., first dose 1 h after ICH onset), the neurological outcomes is given as “improved”. In addition, in the test on ICH mice [2] (setting [3]), the “locomotor function scores (corner turn test, rotarod test)” value was “improved” and the “modified neurological symptom score (mNSS)” value is given as “improved”.
